Results taken from patent publication US20110086891A1, “Solid Forms of 2-(2,4-Difluorophenyl)-6-(1-(2,6-Difluorophenyl)Ureido)Nicotinamide)” (Vertex Pharmaceuticals Incorporated, priority 2009, published 2011).
Values after ≈ are worked out from the molar mass of the structure shown. “Also recorded” adds a separate entry of the source.

Assays:
Assay type in all cases: physicochemical
[1] = Stability studies at 40° C./75% RH (physical and chemical stability, XRPD)
Description: In some embodiments, less than 25% of the solid form of Compound I decomposes, in some embodiments, less than about 20%, less than about 15%, less than about 10%, less than about 5%, less than about 3%, less than about 1%, less than about 0.5% of the form of Compound I decomposes under the conditions specified. In some embodiments, no detectable amount of the solid form of Compound I decomposes. […] In some embodiments, less than 25% of the solid form of Compound I changes into one or more different physical forms when subjected to specified conditions. In some embodiments, less than about 20%, less than about 15%, less than about 10%, less than about 5%, less than about 3%, less than about 1%, less than about 0.5% of the solid form of Compound I changes into one or more different physical forms of Compound I when subjected to specified conditions. In some embodiments, no detectable amount of the solid form of Compound I changes into one or more physically different solid forms of Compound I.

[2] = Solid form conversion on heating, cooling, storage, slurrying or addition of water (XRPD, VT-XRD); conditions: for form conversion upon slurrying in a non-solvate forming solvent: slurry, MeOH and water (MeOH:H2O 1:1)
Description: Another form, Form P, was detected during the MeOH re-crystallization step used to prepare Form C from Form A. Form P is characterized below. When variable-temperature X-Ray diffraction (VT-XRD) of Form P was carried out in 5° C. increments from 25 to 50° C. and the resulting solid was cooled back to ambient conditions, it was observed that Form P transitions to Form A at approximately 40° C. and returns to Form P upon cooling back to room temperature. […] Both Form A and Form P are MeOH solvates.
1. Bruker D8 Discover with HighStar array detector with an accelerator voltage of 40 kV and current of 35 mA over a 120 second acquisition time. Each sample was prepared in a nickel sample holder and the subsequent pattern collected over two frames with a 2θ range of 4-41°. Variable temperature X-Ray diffraction (VT-XRD) was accomplished with a DHS900 Anton Paar heating stage with a TCU150 controller with a heating rate between steps of 10° C./min and an equilibration time of 5 minutes at temperature. 2. Siemens D5000 diffractometer using CuKα radiation (40 kV, 40 mA), θ-θ goniometer, automatic divergence and receiving slits, a graphite secondary monochromator and a scintillation counter. The data were collected over an angular 2 theta range of 2° to 42° in continuous scan mode using a step size of 0.02° and a step time of 1 second. Samples were run under ambient conditions and prepared as flat plate specimens using powder as received without grinding. Approximately 1-2 mg of the sample was slightly pressed on a glass slide to obtain a flat surface. Samples run under non-ambient conditions were mounted on a silicon wafer with heat conducting compounds. The sample was then heated to the appropriate temperature at ca. 20° C./min and subsequently held isothermally for ca 1 minute before data collection was initiated. 3. Bruker AXS C2 GADDS Diffractometer using CuKα radiation (40 kV, 40 mA), automated XYZ stage, laser video microscope for auto-sample positioning and a HiStar 2-dimensional area detector. X-Ray optics consists of a single Gobel multilayer mirror coupled with a pinhole collimator of 0.3 mm. Beam divergence, was approximately 4 mm. A θ-θ continuos scan mode was employed with a sample to detector distance of 20 cm which gives an effective 2θ range of 3.2-29.8°. A typical exposure time of a sample in this system would be 120 s. Samples were run under ambient conditions and prepared as flat plate specimens using powder as received without grinding. Approximately 25-50 mg of the sample was gently packed into 12 mm diameter, 0.5 mm deep cavities cut into polished, zero-background (510) silicon wafers (from The Gem Dugout). All specimens were run both stationary and rotated on their own plate during analysis. A further specimen was run using silicon powder as internal standard to correct for any peak displacement. Diffraction data were reported using Cu Kαl (l=1.5406 Å), after the Kαl component had been stripped using EVA, the powder patterns were indexed by the ITO method using WIN-INDEX and the raw lattice constants refined using WIN-METRIC. 4. Shimadzu XRD-6000 X-Ray powder diffractometer using CuKα radiation (40 kV, 40 mA) equipped with a fine-focus X-Ray tube. Divergence and Scattering slids were set at 1° and the receiving slit was set at 0.15 mm. A NaI scintillation detector detected diffracted irradiation. A θ-2θ continuous scan at 3°/min (0.4 sec/0.02° step) from 2.5° to 40° was used. A silicon standard was analyzed each day to check the instrument alignment. Each sample was prepared for analysis by pressing it onto the sample holder. 5. Inel XRG-3000 X-Ray powder diffractometer using CuKα radiation (40 kV, 30 mA). This was equipped with a curved position-sensitive detector. Data was collected in real time over a 2 θ range of 120° at a resolution of 0.03°. Samples were packed in an aluminum holder with a silicon insert and analyzed. A silicon standard was analyzed each day to check for instrument alignment. […]

[3] = Apparent solubilities of Form A at room temperature and at 60° C.; conditions: thermodynamic from solid
[4] = Solubility analysis (in water); conditions: 25° C.
Description: This was measured by suspending enough Compound I in 0.25 mL of solvent (water) to give a maximum final concentration of ≧10 mg/ml of the parent free form of the compound. The suspension was equilibrated at 25° C. for 24 hrs followed by a pH check and filtration through a glass fibre C96 well plate. The filtrate was then diluted down by a factor of 101. Quantitation was by HPLC (Table XI) with reference to a standard, diluted and undiluted tests were injected. The solubility was calculated by integration of the peak area found at the same retention time as the peak maximum in the standard injection. If there is sufficient solid in the filter plate the XRPD is normally checked for phase changes, hydrate formation, amorphization, crystallization, etc.

[5] = Gravimetric vapour sorption (GVS) studies
Description: All samples were run on a Hiden IGASorp moisture sorption analyzer running CFRSorp software. Sample sizes were typically 10 mg. A moisture absorption-desorption isotherm was performed as outlined below in Table X (2 scans giving 1 complete cycle). All samples were loaded/unloaded at typical room humidity and temperature (40% RH, 25° C.). All samples were analysed by XRPD post GVS analysis. The standard isotherm was performed at 25° C. at 10% RH intervals over a 0-90% RH range.

[6] = Relative stability studies: slurrying 1:1 mixtures of forms in 3:1 water:ethanol at various temperatures; conditions: slurry in 3:1 water:ethanol
Description: 1:1 mixtures of Form C and form G of Compound I were slurried in 3:1 water:ethanol at a range of temperatures to determine the relative stability at different temperatures. 5 mg of Form C was mixed with 5 mg of Form G in a glass vial. 1.0 ml of 3:1 water:ethanol was added and the resulting slurry was stirred at 5° C. for 10 days. The resulting solid was isolated by filtration and analysed by XRPD (see FIG. 17).
(§1) The above procedure was repeated at 25, 50 and 80° C.
1:1 mixtures of Form C and Form F were slurried in 3:1 water:ethanol at a range of temperatures to determine the relative stability at different temperatures. […] Ethanol was used in addition to water in order to increase the amount of Compound I in solution and so increase the rate of conversion between forms. Ethanol was chosen as no ethanol solvate of Compound I was known. 10 mg of Form C was mixed with 10 mg of Form F in a glass vial. 2.0 ml of 3:1 water:ethanol was added and the resulting slurry was stirred at 5° C. for 24 hours. Solid was isolated by filtration and analysed by XRPD.
as §1
1:1 mixtures of Form F and Form G were slurried in 3:1 water:ethanol at a range of temperatures to determine the relative stability at different temperatures. 10 mg of Form F was mixed with 10 mg of Form G in a glass vial. 2.0 ml of 3:1 water:ethanol was added and the resulting slurry was stirred at 5° C. for 24 hours. The resulting solid was isolated by filtration and analysed by XRPD. The above procedure was repeated at 25, 50 and 70° C. 70° C. was used instead of 80° C. in an attempt to reduce degradation.

For `NC(=O)c1ccc(N(C(N)=O)c2c(F)cccc2F)nc1-c1ccc(F)cc1F` [Form P, 2-(2,4-difluorophenyl)-6-(1-(2,6-difluorophenyl)ureido)nicotinamide•MeOH], the “results of stability studies as seen by XRPD (before and after spectra)” value (shortened to “results of stability studies as seen”) [1] was “before and after spectra illustrate formation of Form C”, the “temperature of transition of Form P to Form A” value ([2]; VT-XRD, 5° C. increments from 25 to 50° C.) was “approximately 40 °C” and the “form conversion on heating” value [2] was “convert to Form A upon heating to 50 °C and then to Form C upon heating to 100 °C”. The “relative stability of Form A and Form P” value ([2]; room temperature, VT-XRD) was “the more stable of the two at room temperature” and the “form conversion upon slurrying in a non-solvate forming solvent” value [2] was “convert to Form C”.
For `NC(=O)c1ccc(N(C(N)=O)c2c(F)cccc2F)nc1-c1ccc(F)cc1F` [Form A, 2-(2,4-difluorophenyl)-6-(1-(2,6-difluorophenyl)ureido)nicotinamide•MeOH], the solubility ([3]; organic solvent or mixture, 60° C., 1-Butanol) was 2900 µg/mL (≈ 7.17 mM), the solubility ([3]; organic solvent or mixture, 60° C., Butyl Acetate) was 1900 µg/mL (≈ 4.7 mM) and the solubility ([3]; organic solvent or mixture, room temperature, 1-Butanol) was 2000 µg/mL (≈ 4.95 mM). The solubility ([3]; organic solvent or mixture, room temperature, 2-Butanone) was 3400 µg/mL (≈ 8.41 mM), the solubility ([3]; organic solvent or mixture, room temperature, 2-Propanol) was under 800 µg/mL and the solubility ([3]; organic solvent or mixture, room temperature, 2-Propyl Acetate) was 2900 µg/mL (≈ 7.17 mM). The solubility ([3]; organic solvent or mixture, room temperature, Acetone) was 6400 µg/mL (≈ 15.8 mM), the solubility ([3]; organic solvent or mixture, room temperature, Acetonitrile) was 3800 µg/mL (≈ 9.4 mM) and the solubility ([3]; organic solvent or mixture, room temperature, Dimethylformamide) was over 100000 µg/mL. For the same molecule, the solubility ([3]; organic solvent or mixture, room temperature, Ethanol) was 5700 µg/mL (≈ 14.1 mM), the solubility ([3]; organic solvent or mixture, room temperature, Ethyl Acetate) was 7200 µg/mL (≈ 17.8 mM) and the solubility ([3]; organic solvent or mixture, room temperature, Heptane) was under 900 µg/mL. It also gave a solubility ([3]; organic solvent or mixture, room temperature, Methanol) of 5700 µg/mL (≈ 14.1 mM), a solubility ([3]; organic solvent or mixture, room temperature, Methylene Chloride) of under 800 µg/mL and a solubility ([3]; organic solvent or mixture, room temperature, Tetrahydrofuran) of 1500 µg/mL (≈ 3.71 mM). The solubility ([3]; room temperature, Water) was under 900 µg/mL, the “results of stability studies as seen” value [1] was “before and after spectra illustrate formation of Form C” and the “form conversion upon storage” value ([1]; 40° C./75% RH) was “become Form C described herein after one to four weeks; also recorded: convert to Form C upon storage at 40° C./75% RH for one week or longer”. The “form conversion on cooling” value ([2]; cooling) was “convert to Form P upon cooling below about 50 °C”, the “form conversion on heating” value [2] was “become crystalline Form C upon heating to 100 °C” and the “form conversion upon slurrying in a non-solvate forming solvent” value [2] was “become crystalline Form C”.
With `NC(=O)c1ccc(N(C(N)=O)c2c(F)cccc2F)nc1-c1ccc(F)cc1F` [Form G, 2-(2,4-difluorophenyl)-6-(1-(2,6-difluorophenyl)ureido)nicotinamide] the solubility in water [4] was “at least 0.020 mg/mL”, the “results of stability studies as seen” value [1] was “before and after spectra are similar” and the “time remaining chemically stable” value ([1]; 40° C./75% RH) was “at least two”. The “time remaining in substantially the same physical form” value ([1]; 40° C./75% RH) was “at least two”, the hygroscopicity [5] was “highly hygroscopic” and the “total water gain (in weight) at 10% RH” value ([5]; 10% RH) was 1%. For the same molecule, the “weight gain in water at 90% RH” value [5] was “more than 8%”, the “form conversion after the addition of water” value ([2]; 20° C. to 50° C., 2, 5 and 24 hours after addition of water) was “convert into Form Q” and the “form conversion on heating” value [2] was “converted into Form F on heating above about 130 °C”. For the same molecule, the “relative stability between forms” value [6] was “more stable than Form F at 5 °C”.
With `NC(=O)c1ccc(N(C(N)=O)c2c(F)cccc2F)nc1-c1ccc(F)cc1F` [Form F, 2-(2,4-difluorophenyl)-6-(1-(2,6-difluorophenyl)ureido)nicotinamide] the solubility in water [4] was “at least 0.021 mg/mL”, the “time remaining chemically stable” value ([1]; 40° C./75% RH) was “at least 2 weeks” and the “time remaining in substantially the same physical form” value ([1]; 40° C./75% RH) was “at least 2 weeks”. For the same molecule, the “total weight gain in water at 40% RH” value ([5]; 40% RH) was 1%, the “weight gain in water at 90% RH” value [5] was 1.1% and the “fate of the form on slurrying” value [6] was “At 5 and 25° C., Form F was observed to convert to Form G; also recorded: not recovered after slurrying at any of the four temperatures”.
